# Results published in patent US20130072899A1, “Pharmaceutical Formulations for Iontophoretic Delivery of Gallium” (Nitric BloTherapeutics, Inc., priority 2008, published 2013).
# Where “and” joins values, the source holds several entries; their conditions need not be identical. Equal values may be shown once. Read-outs that look alike come from different tables or passages of the source.
# How the values were obtained:
# [1] = Gallium permeation through full thickness human skin, Franz cells (effect of concentration and iontophoresis duration); assay type: in vitro ADME; conditions: for Amount of Ga detected in receiver after 70 h / Steady state Ga flux: nitrate hydrate; for increase in gallium permeation compared to passive cells: 16.7% w/v, 70 h
# Procedure: Human full thickness skin was stored in the same fashion as the epidermal sheet (Example 3), and a similar Franz cell assembly technique was adopted. The effect of concentration was investigated by applying 16.7, 1.5 and 0.15 % w/v gallium solutions in pH 5.0 citric acid buffer to the donor compartment (0.8 mL). Ten minutes of 400 μA iontophoresis was applied to all of the cells and 0.5 mL samples were removed after 0, 24, 28, 42, 65 and 70 h and replaced with receiver fluid. The gallium in the samples was assayed using the LC ion-exchange method. […] Samples of 0.5 mL were removed for LC ion-exchange assay after 0, 24, 28, 42, 52 and 70 h and replaced with receiver fluid. […] Gallium solutions containing 2.4, 1.6, 0.79, 0.395 and 0.1975 mg of gallium in 20 μL of water were applied to the stratum corneum of the skin samples using a positive displacement pipette (Eppendorf, Cambridge, UK). The samples were then left for 24 h to allow the gallium to permeate the skin. The skin samples were then finely sliced using scissors, chilled and homogenised for five minutes using a T10 Ultra-Turax homogeniser (IKA works, Staufen, Germany) using 30 second pulses. The scalpel, scissors, forceps and homogeniser blades were washed through using 10 mL of PDCA mobile phase concentrate as the extractant. The PDCA concentrate (pH 4.2) was freshly made every week by weighing approximately 5.8 g PDCA, 18.5 g potassium hydroxide, 4.9 g potassium sulphate and 17.0 g of formic acid into a 1000 mL volumetric and making up to volume with DiH2O. The skin-PDCA concentrate homogenate was allowed to mix for a further 24 h before being filtered using 0.45 μm, 30 mm cellulose acetate syringe filters (Orange Scientific, Braine l'Alleud, Belgium). The gallium in the remaining solution was assayed using the LC ion-exchange method. The binding affinity was calculated by subtracting the amount of gallium recovered by the extraction from the amount applied to the skin, in order to gain the amount of gallium still bound to skin in the homogenate. This figure was then divided by the mass of the skin sample to calculate the amount of gallium bound per gram of skin.
# [2] = Infinite dose mass balance study, gallium recovery from human skin; conditions: for Ga mass detected per skin surface area: nitrate hydrate
# Procedure: An infinite dose mass balance study was performed using full thickness human skin. Small Franz cells were set up as previously described and the mass and thickness of skin section recorded. […] Cells were then treated with either […] iontophoresis or received no iontophoresis (n=6 for each). […] The skin samples were removed and reweighed.
# (Cells dismantled after 0 and 60 h post iontophoresis).
# [3] = Effect of speciation and ITP on gallium deposition within full thickness human skin; assay type: in vitro ADME
# Procedure: An infinite dose skin deposition study was performed using full thickness human skin. Small Franz cells were constructed as previously described and the mass of skin section recorded. The Franz cells were set up with a receiver fluid of 0.05 M citric acid buffer (pH 5.0) and allowed to equilibrate for one hour. Donor solutions were prepared and 0.5 mL of each added to the appropriate Franz cell donor compartment. Each cell was subjected to either 60 min of ITP or an equivalent period of passive permeation. The cells were sacrificed after cither 60 min (directly after ITP, n=8) or after 25 h (24 h of permeation, n=8). […] The skin samples were removed and reweighed. […] The skin samples were then finely sliced using scissors, chilled and homogenised for five minutes using a T10 Ultra-Turax homogeniser (IKA werks, Staufen, Germany) using 30 second pulses. The scalpel blade, scissors, forceps and homogeniser blades were washed into the homogenate using PDCA mobile phase (five times concentrate) to minimise drug loss from the method. The skin-PDCA concentrate homogenate was allowed to mix for a further 24 h before being filtered using 0.45 μm, 30 mm cellulose acetate syringe filters (Orange Scientific, Braine l'Alleud, Belgium).
# [4] = for specific binding affinity of human full thickness skin for gallium (mean): mean of samples A-E, nitrate hydrate
# Procedure: Ten minutes of 400 μA iontophoresis was applied to all of the cells and 0.5 mL samples were removed after 0, 24, 28, 42, 65 and 70 h and replaced with receiver fluid. […] Samples of 0.5 mL were removed for LC ion-exchange assay after 0, 24, 28, 42, 52 and 70 h and replaced with receiver fluid. […] The skin samples were then finely sliced using scissors, chilled and homogenised for five minutes using a T10 Ultra-Turax homogeniser (IKA works, Staufen, Germany) using 30 second pulses. The scalpel, scissors, forceps and homogeniser blades were washed through using 10 mL of PDCA mobile phase concentrate as the extractant. […] The skin-PDCA concentrate homogenate was allowed to mix for a further 24 h before being filtered using 0.45 μm, 30 mm cellulose acetate syringe filters (Orange Scientific, Braine l'Alleud, Belgium).
# collagen synthesis = conditions: cited from earlier work
# [5] = 0.15% w/v, iontophoresis 10 min, 400 μA, listed as Ga
# [6] = 1.5% w/v, iontophoresis 10 min, 400 μA, listed as Ga
# [7] = 16.67% w/v, iontophoresis 0 min (passive), listed as Ga
# [8] = 16.67% w/v, iontophoresis 0 min (passive)
# [9] = 16.67% w/v, iontophoresis 10 min, 400 μA, listed as Ga
# [10] = 16.67% w/v, iontophoresis 10 min, 400 μA, listed as gallium
# [11] = 16.67% w/v, iontophoresis 60 min, 400 μA, listed as Ga
# [12] = 16.67% w/v, iontophoresis 60 min, 400 μA
# [13] = Ionto (400 μA, 60 min) 0 h, 1.5% w/v
# [14] = Ionto (400 μA, 60 min) 60 h, 1.5% w/v
# [15] = Sample D, Ga delivered 0.395 mg
# [16] = Sample E, Ga delivered 0.1975 mg
smiles,measurement,setting,value
"O=[N+]([O-])[O-].O=[N+]([O-])[O-].O=[N+]([O-])[O-].[Ga+3] [gallium nitrate, Gallium (III) nitrate hydrate]",Amount of Ga detected in receiver after 70 h,[1]; [5],0.0028 ± 0.006 mg/cm^2
same,Steady state Ga flux,[1]; [5],0.008 μg/cm^2/h and 0.008 ± 0.005 μg/cm^2/h
same,Amount of Ga detected in receiver after 70 h,"[1]; 0.15% w/v, iontophoresis 10 min, 400 μA",0.0028±0.006 mg/cm^2
same,reduction of amount of drug permeating the skin,"[1]; 1.5% w/v vs 16.67% w/v Ga, 10 min iontophoresis",10.6%
same,Amount of Ga detected in receiver after 70 h,[1]; [6],0.044 ± 0.034 mg/cm^2
same,Steady state Ga flux,[1]; [6],0.9 μg/cm^2/h and 0.900 ± 0.695 μg/cm^2/h
same,Amount of Ga detected in receiver after 70 h,"[1]; 1.5% w/v, iontophoresis 10 min, 400 μA",0.0438±0.034 mg/cm^2
same,Amount of Ga detected in receiver after 70 h,[1]; [7],0.004 ± 0.011 mg/cm^2
same,Steady state Ga flux,[1]; [7],0.009 ± 0.003 μg/cm^2/h
same,Amount of Ga detected in receiver after 70 h,[1]; [8],0.004±0.011 mg/cm^2
same,Steady state Ga flux,[1]; [8],0.009±0.003 μg/cm^2/h
same,Amount of Ga detected in receiver after 70 h,[1]; [9],0.049 ± 0.013 mg/cm^2
same,Steady state Ga flux,[1]; [9],0.9 μg/cm^2/h and 0.900 ± 0.238 μg/cm^2/h
same,Amount of Ga detected in receiver after 70 h,[1]; [10],0.049±0.013 mg/cm^2
same,Steady state Ga flux,[1]; [10],0.9±0.238 μg/cm^2/h
same,Amount of Ga detected in receiver after 70 h,"[1]; 16.67% w/v, iontophoresis 10 min, 400 μA",0.049±0.013 mg/cm^2
same,Amount of Ga detected in receiver after 70 h,[1]; [11],0.063 ± 0.022 mg/cm^2
same,Steady state Ga flux,[1]; [11],1.300 ± 0.450 μg/cm^2/h
same,Amount of Ga detected in receiver after 70 h,[1]; [12],0.063±0.022 mg/cm^2
same,Steady state Ga flux,[1]; [12],1.3±0.450 μg/cm^2/h
same,increase in gallium permeation compared to passive cells,[1]; 10 min iontophoresis,1125%
same,increase in gallium permeation compared to passive cells,[1]; 60 min iontophoresis,1475%
same,"Ga mass detected, full thickness human skin",[2]; [13],0.0788 ± 0.043 mg
same,"Ga mass detected, skin corrected for binding",[2]; [13],0.127 ± 0.043 mg
same,Ga mass detected per skin surface area,"[2]; Ionto (400 μA, 60 min) 0 h, 1.5% w/v, listed as Ga",0.200 ± 0.069 mg/cm^2
same,Ga mass detected per skin surface area,[2]; [13],0.200±0.069 mg/cm^2
same,"Ga mass detected, full thickness human skin",[2]; [14],0.328 ± 0.371 mg
same,"Ga mass detected, skin corrected for binding",[2]; [14],0.391 ± 0.373 mg
same,Ga mass detected per skin surface area,"[2]; Ionto (400 μA, 60 min) 60 h, 1.5% w/v, listed as Ga",0.617 ± 0.059 mg/cm^2
same,Ga mass detected per skin surface area,[2]; [14],0.617±0.059 mg/cm^2
same,"Ga mass detected, full thickness human skin","[2]; Passive 0 h, 1.5% w/v",0.07 ± 0.036 mg
same,"Ga mass detected, skin corrected for binding","[2]; Passive 0 h, 1.5% w/v",0.111 ± 0.035 mg
same,Ga mass detected per skin surface area,"[2]; Passive 0 h, 1.5% w/v, listed as Ga",0.178 ± 0.058 mg/cm^2
same,Ga mass detected per skin surface area,"[2]; Passive 0 h, 1.5% w/v",0.178±0.058 mg/cm^2
same,"Ga mass detected, full thickness human skin","[2]; Passive 60 h, 1.5% w/v",0.0745 ± 0.108 mg
same,"Ga mass detected, skin corrected for binding","[2]; Passive 60 h, 1.5% w/v",0.137 ± 0.109 mg
same,Ga mass detected per skin surface area,"[2]; Passive 60 h, 1.5% w/v, listed as Ga",0.221 ± 0.176 mg/cm^2
same,Ga mass detected per skin surface area,"[2]; Passive 60 h, 1.5% w/v",0.221±0.176 mg/cm^2
same,"increase in skin gallium content, iontophoretic vs passive","[2]; after 60 hours, 1.5% w/v",three fold
same,total gallium in the skin vs levels in the receiver compartment,[2]; both passive and iontophoretic cells,ten-fold higher
same,"increase in detected gallium level in the skin, iontophoresis vs passive",[2]; immediately after iontophoresis,12%
same,increase in gallium flux with 60 min iontophoresis compared to passive,[2]; receiver compartment and recovery from the skin,approximate three-fold increase
same,ITP Ga skin deposition 24 h,"[3]; Anodal, 60 min ITP then 24 h",1.888±1.159 mg/cm^2
same,ITP Ga skin deposition 60 min,"[3]; Anodal, 60 min of 615 μA/cm^2 ITP",1.203±0.248 mg/cm^2
same,60 min passive skin deposition,"[3]; passive, 60 min",0.288±0.258 mg/cm^2
same,% Ga recovery,"[4]; Sample A, Ga delivered 2.4 mg",97.1%
same,Binding,"[4]; Sample A, Ga delivered 2.4 mg",0.138 mg/g
same,Ga bound to skin,"[4]; Sample A, Ga delivered 2.4 mg",0.07 mg
same,Ga recovered,"[4]; Sample A, Ga delivered 2.4 mg",2.33 mg
same,% Ga recovery,"[4]; Sample B, Ga delivered 1.6 mg",92.5%
same,Binding,"[4]; Sample B, Ga delivered 1.6 mg",0.178 mg/g
same,Ga bound to skin,"[4]; Sample B, Ga delivered 1.6 mg",0.12 mg
same,Ga recovered,"[4]; Sample B, Ga delivered 1.6 mg",1.48 mg
same,% Ga recovery,"[4]; Sample C, Ga delivered 0.79 mg",87.3%
same,Binding,"[4]; Sample C, Ga delivered 0.79 mg",0.193 mg/g
same,Ga bound to skin,"[4]; Sample C, Ga delivered 0.79 mg",0.1 mg
same,Ga recovered,"[4]; Sample C, Ga delivered 0.79 mg",0.69 mg
same,% Ga recovery,[4]; [15],73.4%
same,Binding,[4]; [15],0.197 mg/g
same,Ga bound to skin,[4]; [15],0.105 mg
same,Ga recovered,[4]; [15],0.29 mg
same,% Ga recovery,[4]; [16],60.8%
same,Binding,[4]; [16],0.151 mg/g
same,Ga bound to skin,[4]; [16],0.0775 mg
same,Ga recovered,[4]; [16],0.12 mg
same,specific binding affinity of human full thickness skin for gallium (mean),[4]; listed as Ga,0.171 mg/g
same,specific binding affinity of human full thickness skin for gallium (mean),[4],0.17 ± 0.03 mg/g
same,maximum effective dose,collagen synthesis; nitrate hydrate,100 uM and 0.0256 mg/ml
same,effective range per mg tissue,"collagen synthesis; per mg dry weight tissue, Goncalves et al., 2002, Bockman patent",1 to 1000 ng/mg
same,effective (desired) concentration range,"collagen synthesis; published, Bockman et al. 1993, Goncalves et al. 2002",0.25 to 100 µM
